Assay results published in patent publication EP1161417B1, “METHODS AND COMPOSITIONS FOR TREATING LEUKEMIA” (HSC Research and Development Limited Partnership, priority 1999, dated 2000).

Key:
[1] = molecular target: T1, Jak2 kinase (Homo sapiens, UniProt O60674); assay: in vitro kinase assay on Jak2 immunoprecipitated from G2 cell lysate; type: biochemical; conditions: scanning autoradiographs of the kinase assays
T1 construct: Jak2 kinase was immunoprecipitated from a 1% Triton-X100 lysate of 10x10^6 G2 cells; endogenous in cells; host or cells: G2 pre-B leukemia cell line
T1 sequence (O60674 whole entry): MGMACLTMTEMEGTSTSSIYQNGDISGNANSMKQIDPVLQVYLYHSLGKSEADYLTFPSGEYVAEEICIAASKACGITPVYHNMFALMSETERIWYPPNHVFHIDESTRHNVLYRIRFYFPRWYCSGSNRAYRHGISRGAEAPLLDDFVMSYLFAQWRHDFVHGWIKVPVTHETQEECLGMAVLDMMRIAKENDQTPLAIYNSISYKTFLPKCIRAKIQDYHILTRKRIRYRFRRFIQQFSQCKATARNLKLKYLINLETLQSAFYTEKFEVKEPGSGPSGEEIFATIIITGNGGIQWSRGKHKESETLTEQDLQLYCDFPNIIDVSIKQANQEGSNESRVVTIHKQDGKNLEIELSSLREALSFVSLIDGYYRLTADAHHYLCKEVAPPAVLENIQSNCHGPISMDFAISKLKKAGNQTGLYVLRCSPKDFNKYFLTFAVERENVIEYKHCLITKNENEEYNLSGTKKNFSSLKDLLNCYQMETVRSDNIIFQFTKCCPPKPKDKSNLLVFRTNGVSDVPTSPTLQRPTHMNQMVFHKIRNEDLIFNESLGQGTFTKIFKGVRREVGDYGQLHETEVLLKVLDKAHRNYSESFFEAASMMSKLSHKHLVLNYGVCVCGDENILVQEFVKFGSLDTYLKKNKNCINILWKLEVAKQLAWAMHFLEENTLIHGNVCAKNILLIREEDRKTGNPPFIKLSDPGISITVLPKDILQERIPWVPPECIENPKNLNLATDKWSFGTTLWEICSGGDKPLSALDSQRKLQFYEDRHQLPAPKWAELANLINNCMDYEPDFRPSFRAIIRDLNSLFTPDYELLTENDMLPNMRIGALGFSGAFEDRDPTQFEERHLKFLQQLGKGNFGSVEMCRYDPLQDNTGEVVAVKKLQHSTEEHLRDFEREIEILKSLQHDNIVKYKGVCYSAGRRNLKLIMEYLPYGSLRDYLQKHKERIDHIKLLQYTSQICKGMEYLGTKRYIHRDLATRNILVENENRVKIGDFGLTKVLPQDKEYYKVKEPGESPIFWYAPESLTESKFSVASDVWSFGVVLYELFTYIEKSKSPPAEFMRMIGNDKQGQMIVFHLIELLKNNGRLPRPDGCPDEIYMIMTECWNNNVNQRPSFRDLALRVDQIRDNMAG
Method: Compounds chosen on the basis of their ability to inhibit the growth (colony formation) of the pre-B leukemia cell line G2 were tested for inhibition of Jak2 kinase.
Jak2 kinase was immunoprecipitated from a 1% Triton-X100 lysate of 10x10^6 G2 cells. An in vitro kinase assay was performed on the immunoprecipitated Jak2 in the presence or absence of varying concentrations of the compounds AG 1977, AG 1978, AG 2009 and AG 2010.
Stock solutions of 100mM tyrphostin were made in 100% DMSO and further dilutions made in 10% DMSO. Control kinase assays carried out in the presence of DMSO concentrations of 5-30% alone were unaffected by its presence.
Initial experiments were done with tyrphostin concentrations of 0.1, 1.0 and 10µM. These concentrations had no affect on the kinase activity of Jak2. […]

[2] = tested on: G2 ALL cells; assay: clonogenic assay, inhibition of colony formation of ALL cell line G2; type: cell-based, human
Method: Inhibition of colony formation was studied by methods described previously (Kamel-Reid et al., (1992), Leukemia, v. 6, pp. 8-17; Meydan et al., (1996), Nature, v. 379, pp. 645-648).
ALL cell lines A1 (at 8x10^5 cells/ml), C1 (at 4x10^4 cells/ml) and G2 (at 1.15x10^6 cells/ml) were plated in 1 ml volumes, in the absence of exogenous growth factors, into 35 mm petri dishes (Nunc, Gibco) containing alpha MEM (Gibco) plus 10% FCS (Cansera Rexdale, Ont.) in 0.9% (vol/vol) methylcellulose (Fluka, Switzerland). Cultures were set up at 37°C with 5% CO2 in a humidified atmosphere and 10 uM of a selected tyrphostin was added. Colonies consisting of more than 20 cells were counted at 12 days (A1), 5 days (C1) and 14 days (G2) using an inverted microscope. Similar results were obtained with A1 and C1.
Various concentrations of tyrphostins were tested for inhibition of ALL cells in the clonogenic assay described in Example 2. Compounds AG 1977. 1978, 2007, 2008, 2009 and 2010 were tested against ALL cell lines A1, C1 and G2 in doses ranging from nanomolar to micromolar values.

[3] = tested on: normal bone marrow cells; assay: modified CFU-GEMM clonogenic assay on normal bone marrow cells; type: cell-based, human; conditions: 40µM
Method: Compounds showing inhibition of ALL colony formation were examined for their effect on normal bone marrow cells using a modified CFU-GEMM clonogenic assay.
The assay was performed according to Fauser and Messner (1978), Blood, v. 52, pp. 1243-8, and Messner and Fausser (1980), Blut, v. 41, pp. 327-333, with some variations. In brief, heparinized bone marrow cells were layered over Percoll (Pharmacia Fine Chemical. Piscataway N.J.) at a density of 1.077 gm/ml and centrifuged at 400 g at 4°C for 10 min. to remove neutrophils and RBCs. The fractionated bone marrow cells at 2x10^5 cells/ml were cultured in IMDM (OCI, Toronto) containing 0.9% (vol/vol) methylcellulose supplemented with 30% FCS (Cansera Rexdale, Ont.) or normal human plasma, a cocktail of cytokines consisting of G-CSF (10 ng/ml. Amgen), IL-3 (40 U/ml, Immunex), MGF (50 ng/ml, Immunex), Erythropoietin (2u/ml, Epprex) or TPO (10 ng/ml, Amgen) and 5x10^-5 2-mercaptoethanol. The culture mixture was plated in 1 ml volumes into 35 mm petri dishes and incubated at 37°C with 5% CO2 in a humidified atmosphere with concentrations of tyrphostin up to 40 µm.

## N#C/C(=C\c1cc(O)c(O)c(CSCc2ccccc2)c1)C(=O)NCc1ccccc1 [AG 1977, N-benzyl-2-cyano-3-(3',4'-dihydroxy-5'-methylenethiobenzylphenyl) acrylamide]
[1]; 5µM tyrphostin
  %inhibition of kinase activity: 23%
[1]; 25µM tyrphostin
  %inhibition of kinase activity: 14%
[1]; 50µM tyrphostin
  %inhibition of kinase activity: 15%

## N#C/C(=C\c1cc(O)c(O)c(CSc2ccccc2)c1)C(=O)NCc1ccccc1 [AG 1978, N-benzyl-2-cyano-3-(3',4-dihydroxy-5'-methylenethiophenylphenyl) acrylamide]
[1]; 5µM tyrphostin
  %inhibition of kinase activity: 10%
[1]; 25µM tyrphostin
  %inhibition of kinase activity: 13%
[1]; 50µM tyrphostin
  %inhibition of kinase activity: 46%

## N#C/C(=C\c1cc(O)c(O)c(CSCCc2ccccc2)c1)C(=O)NCc1ccccc1 [AG 2009, N-benzyl-2-cyano-3-(3',4'-dihydroxy-5'-(methylenethioethylphenyl)phenyl) acrylamide]
[2]; Homo sapiens, dose of 16nM, G2 cells
  inhibition at 0.016 µM: > 50%
[2]; against G2 cells, dose responsive (Fig. 13), compared with AG 1977, 1978, 2007, 2008, 2010
  clonogenic inhibition: most potent clonogenic inhibition
[2]; survival curve of normal BM and G2 colonies (Fig. 14)
  differential therapeutic index: greater than 2 logs
[1]; 5µM tyrphostin
  %inhibition of kinase activity: 0%
[1]; 25µM tyrphostin
  %inhibition of kinase activity: 0%
[1]; 50µM tyrphostin
  %inhibition of kinase activity: 8%

## N#C/C(=C\c1cc(O)c(O)c(CSCCCc2ccccc2)c1)C(=O)NCc1ccccc1 [AG 2010, N-benzyl-2-cyano-3-(3',4'-dihydroxy-5'-(methylenethiopropylphenyl)phenyl) acrylamide]
[1]; 5µM tyrphostin
  %inhibition of kinase activity: 5%
[1]; 25µM tyrphostin
  %inhibition of kinase activity: 5%
[1]; 50µM tyrphostin
  %inhibition of kinase activity: 39%
[3]
  inhibition of normal bone marrow colonies: significant inhibition
